Legend:
FLAG-RhoA = target: T1, FLAG-RhoA (Homo sapiens, UniProt P61586); assay: CL16-alkyne labeling of FLAG-RhoA in HCT116 cells (anti-FLAG IP, CuAAC, in-gel fluorescence); assay type: cell-based; details: pre-incubation 2 h
T1 construct: expressed in transfected cells; host or cells: HCT116
Method: HCT116 cells transiently expressing FLAG-RhoA were pre-treated with solvent vehicle or CL16 for 2 h, followed by the incubation with CL16-alkyne in complete medium for another 2 h. The cells were then lysed and subjected to immunoprecipitation by anti-FLAG beads. The enriched proteins were reacted with rhodamine azide through copper-catalyzed azide-alkyne cycloaddition (CuAAC), boiled with sampling buffer and separated by SDS-PAGE. The protein bands were then visualized by their in-gel fluorescence or blotted for RhoA. […] HCT116 cells were pre-treated with solvent vehicle or CL16 for 2 h, followed by the incubation with CL16-alkyne in complete medium for another 2 h. The cells were then lysed, reacted with rhodamine azide through CuAAC, boiled with sampling buffer, separated by SDS-PAGE and imaged. […]
To identify protein target and any off-targets of CL16 in CRCs, a molecular probe of CL16, CL16-alkyne (FIG. 6A), was synthesized. […] The protein bands were then visualized by their in-gel fluorescence or blotted for RhoA. […] The probe-labeled proteins were installed with rhodamine through CuAAC, and visualized by their in-gel fluorescence after SDS-PAGE. A protein band with strong fluorescence was found at −22 kDa in the sample incubated with CL16-alkyne only, in line with the molecular weight of RhoA (FIG. 6C).

HCT116 xenograft = assay: Mouse HCT116 xenograft model; assay type: in vivo; details: nude mice, 10 mg/kg intraperitoneal
Method: FIG. 7A is a graph showing inhibition of tumor growth by CL16 in mouse HCT116 xenografts through intraperitoneal injection at 10 mg/kg (n=6 per group). FIG. 7B is a graph showing inhibition of tumor growth by CL16 in mouse HT29 xenografts through intraperitoneal injection at 10 mg/kg (n=7). FIG. 7C is a graph showing the body weight of mice with HT29 xenografts throughout the treatment with CL16. FIG. 7D is a graph showing inhibition of tumor growth by CL16 in mouse SW620 xenografts through intraperitoneal injection at 10 mg/kg (n=6 per group). FIG. 7E is a bar graph showing the tumor weight of harvested tumors from the treated mice with SW620 xenografts. FIG. 7F is a graph showing the body weight of mice with SW620 xenografts throughout the treatment with CL16. Statistical analysis using a two-tailed Student's t-test. *P<0.05.
7-week-old mice with weight around 20 g were inoculated subcutaneously with HCT116 (2×10^6 cells per mouse) or HT29 (3×10^6 cells per mouse) cells, in serum-free RMPI or Matrigel in PBS respectively. […] The tumor volume and body weight of the nude mice were measured throughout the treatment. The tumor volume was calculated by the equation: Volume (mm^3)=1×w^2/2, where 1 and w were the length and width of the tumor. At the end of the treatment, the mice were sacrificed and the tumor weight was measured. […]

RhoA = RhoA (Homo sapiens, UniProt P61586); assay: GDP-GTP exchange assay (BODIPY-GTP); assay type: biochemical; design: purchased ab101594; details: fluorescence-based exchange assay
Method: Recombinant human RhoA protein (0.2 μg; ab101594) was incubated with GDP (50 nM) in 100 μL of GTP-exchange buffer (20 mM HEPES, 150 mM NaCl, 5 mM MgCl2, pH 7.4) at room temperature for 1 h. CL16 or solvent control was then added to the solution mixture and incubated at room temperature for another hour. For self-exchange assay, BODIPY-GTP (100 nM) was added to the solution and the fluorescence from plate was measured every 30 s. For LARG-mediated GDP-to-GTP exchange, BODIPY-GTP (100 nM) and LARG DH-PH protein (30 nM) were added to the solution mixture and the fluorescence from plate was measured every 30 s. BODIPY-GTP was excited at 477±14 nm and its fluorescence was measured at 525±30 nm using a plate reader (Clariostar).

RhoA, sequence (P61586 whole entry): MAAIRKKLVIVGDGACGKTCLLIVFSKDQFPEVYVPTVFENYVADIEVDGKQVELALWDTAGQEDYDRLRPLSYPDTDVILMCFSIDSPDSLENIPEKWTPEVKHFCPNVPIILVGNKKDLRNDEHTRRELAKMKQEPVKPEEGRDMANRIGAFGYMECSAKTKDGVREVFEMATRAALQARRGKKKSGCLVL
T1 sequence (P61586 whole entry): as above

## O=C(CCl)N1N=C(c2cc3ccccc3o2)CC1c1ccco1 (stereo not shown) [CL16]
FLAG-RhoA
  competition with CL16-alkyne labeling of FLAG-RhoA: competed with the alkyne probe labeling
HCT116 xenograft
  tumor growth vs vehicle control: significantly inhibited tumor growth
RhoA
  GDP-to-GTP self-exchange: significant decreases
  LARG-mediated GDP-to-GTP exchange: significant decreases

From patent US20250073209A1, “COVALENT TARGETING OF RhoA FOR CANCER THERAPY” (The University of Hong Kong, priority 2023, published 2025)
